ChEMBL document CHEMBL1201862, “PubChem BioAssay data set” (2004)
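Each compound was tested at five concentrations against cells in 96-well plates for 48 hours. Abbreviation: GI50, concentration required for 50% inhibition of growth.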 Activity calls are given as the source filed them. No stated cut-off is given here; in the data, active = GI50 up to about 1.1 µM and inactive = higher.

Columns and labels:
Assay in all cases: NCI tumour cell line growth inhibition, 48 h
[1] = test system: MOLT-4
[2] = test system: HCC 2998
[3] = test system: ACHN
[4] = test system: SK-MEL-28
[5] = test system: OVCAR-4
[6] = test system: TK-10
[7] = test system: M14
[8] = test system: NCI-H23
[9] = test system: LOX IMVI
[10] = test system: RXF 393
[11] = test system: NCI-H522
[12] = test system: UACC-257
[13] = test system: A549
[14] = test system: MCF7
[15] = test system: COLO 205
[16] = test system: SF-295
[17] = test system: DU-145
[18] = test system: PC-3
[19] = test system: HL-60
[20] = test system: SR
[21] = test system: IGROV-1
[22] = test system: OVCAR-5
[23] = test system: RPMI-8226
[24] = test system: SN12C
[25] = test system: SF-268
[26] = test system: CAKI-1
[27] = test system: MDA-N
[28] = test system: MDA-MB-231
[29] = test system: KM12
[30] = test system: HCT-15
[31] = test system: SW-620
[32] = test system: NCI-H460
[33] = test system: OVCAR-3
[34] = test system: SK-MEL-2
[35] = test system: A498
[36] = test system: SF-539
[37] = test system: HCT-116
[38] = test system: T47D
[39] = test system: NCI/ADR-RES
[40] = test system: Malme-3M
[41] = test system: MDA-MB-435
[42] = test system: UO-31
[43] = test system: HT-29
[44] = test system: U-251
[45] = test system: CCRF-CEM
[46] = test system: NCI-H226
[47] = test system: 786-0
[48] = test system: SK-OV-3
[49] = test system: Hs-578T
[50] = test system: UACC-62
[51] = test system: HOP-62
[52] = test system: EKVX
[53] = test system: SK-MEL-5
[54] = test system: SNB-19
[55] = test system: HOP-92
[56] = test system: OVCAR-8
[57] = test system: K562
[58] = test system: SNB-75
[59] = test system: BT-549

Measured: GI50

COc1cc(/C=C/c2ccnc3ccccc23)cc(OC)c1OC
2.56 µM: [30]
active: [19] 0.416 µM | [27] 0.351 µM | [41] 0.413 µM | [42] 0.132 µM
inactive: [1] 2.92 µM | [2] 8.47 µM | [3] 7.23 µM | [4] 3.08 µM | [5] 1.81 µM | [6] 5.37 µM | [7] 3.63 µM | [8] 1.66 µM | [9] 4.63 µM | [10] 1.63 µM | [11] 2.13 µM | [12] 5.27 µM | [13] 4.52 µM | [14] 5.22 µM | [15] 1.88 µM | [16] 8.47 µM | [17] 4.84 µM | [18] 9.29 µM | [20] 1.35 µM | [21] 3.66 µM | [22] 7.8 µM | [23] 3.72 µM | [24] 3.56 µM | [25] 3.39 µM | [26] 3.7 µM | [28] 2.21 µM | [29] 3.23 µM | [31] 4.93 µM | [32] 3.77 µM | [33] 3.3 µM | [34] 3.78 µM | [35] 4 µM | [36] 3.78 µM | [37] 1.82 µM | [38] 3.81 µM | [39] 2.46 µM | [40] 2.98 µM | [43] 1.28 µM | [44] 4.99 µM | [45] 2.09 µM | [46] 5.04 µM | [47] 8.97 µM | [48] 4.19 µM | [49] 3.85 µM | [50] 3.17 µM | [51] 7.16 µM | [52] 8.87 µM | [53] 2.45 µM | [54] 10.4 µM

Cc1cccc2c1C(=O)C1(Cc3ccccc3C1=O)C2 (centres undefined)
> 100 µM: [30]
inactive: [1] 91.2 µM | [2] > 100 µM | [3] > 100 µM | [4] > 100 µM | [5] > 100 µM | [6] > 100 µM | [7] > 100 µM | [8] > 100 µM | [9] > 100 µM | [10] > 100 µM | [11] > 100 µM | [55] > 100 µM | [12] > 100 µM | [56] > 100 µM | [13] > 100 µM | [14] > 100 µM | [15] > 100 µM | [16] > 100 µM | [17] > 100 µM | [18] > 100 µM | [19] > 100 µM | [20] > 100 µM | [21] > 100 µM | [57] > 100 µM | [22] > 100 µM | [23] 57.9 µM | [24] > 100 µM | [25] > 100 µM | [27] > 100 µM | [28] > 100 µM | [31] > 100 µM | [32] 70.3 µM | [33] > 100 µM | [35] 47.1 µM | [58] 46.5 µM | [36] > 100 µM | [37] > 100 µM | [38] 52.8 µM | [39] 87.1 µM | [40] > 100 µM | [41] > 100 µM | [42] 28.9 µM | [43] > 100 µM | [44] > 100 µM | [45] > 100 µM | [46] > 100 µM | [47] > 100 µM | [48] > 100 µM | [49] 48.3 µM | [50] 84.7 µM | [51] > 100 µM | [52] > 100 µM | [53] > 100 µM | [54] > 100 µM

CC(=O)OC1CCC2C3CCc4c(C)ccc(OS(=O)(=O)c5ccccc5)c4C3CCC12C (centres undefined)
7.73 µM: [30]
inactive: [1] 6.32 µM | [2] 64.9 µM | [3] 35.9 µM | [4] > 100 µM | [5] 21.8 µM | [6] 52.1 µM | [8] 16.3 µM | [9] 7.41 µM | [10] 31.1 µM | [11] 27.2 µM | [55] 6.55 µM | [12] 73.3 µM | [59] 23.7 µM | [14] 16.2 µM | [15] 18.6 µM | [16] 25.5 µM | [17] 33.1 µM | [18] 5.57 µM | [19] 3.84 µM | [20] 6.82 µM | [21] 38.7 µM | [57] 5.69 µM | [22] 86.1 µM | [23] 21.7 µM | [24] > 100 µM | [25] > 100 µM | [26] 24 µM | [27] > 100 µM | [28] 19.3 µM | [31] 63.5 µM | [32] 6.61 µM | [33] 7.33 µM | [34] 30.8 µM | [35] 32.5 µM | [37] 3.37 µM | [40] 50.4 µM | [41] 41.7 µM | [42] 21.9 µM | [43] 13.1 µM | [44] 13.6 µM | [45] 19.1 µM | [46] 14.8 µM | [47] 6.76 µM | [48] 34.2 µM | [50] 26.2 µM | [51] 26.4 µM | [52] 46.9 µM | [53] 3.74 µM | [54] 47.1 µM
